In ChEMBL document CHEMBL1131542, “A potent dipeptide inhibitor of dipeptidyl peptidase IV” (Bioorg Med Chem Lett, 1998) one finds inhibition data, which are given here for 32 compounds.

Square brackets hold non-standard residues; d marks the D form. Peptide text beside a SMILES is read from it. Tic = O=C(O)[C@@H]1Cc2ccccc2CN1

For one assay, the target named is T1, Dipeptidyl peptidase 4 (Homo sapiens, UniProt P27487). The experiment in a line: Percent inhibition against Dipeptidyl peptidase IV (DPP IV) at a concentration of 1 uM.
T1 sequence (P27487 whole entry, looked up): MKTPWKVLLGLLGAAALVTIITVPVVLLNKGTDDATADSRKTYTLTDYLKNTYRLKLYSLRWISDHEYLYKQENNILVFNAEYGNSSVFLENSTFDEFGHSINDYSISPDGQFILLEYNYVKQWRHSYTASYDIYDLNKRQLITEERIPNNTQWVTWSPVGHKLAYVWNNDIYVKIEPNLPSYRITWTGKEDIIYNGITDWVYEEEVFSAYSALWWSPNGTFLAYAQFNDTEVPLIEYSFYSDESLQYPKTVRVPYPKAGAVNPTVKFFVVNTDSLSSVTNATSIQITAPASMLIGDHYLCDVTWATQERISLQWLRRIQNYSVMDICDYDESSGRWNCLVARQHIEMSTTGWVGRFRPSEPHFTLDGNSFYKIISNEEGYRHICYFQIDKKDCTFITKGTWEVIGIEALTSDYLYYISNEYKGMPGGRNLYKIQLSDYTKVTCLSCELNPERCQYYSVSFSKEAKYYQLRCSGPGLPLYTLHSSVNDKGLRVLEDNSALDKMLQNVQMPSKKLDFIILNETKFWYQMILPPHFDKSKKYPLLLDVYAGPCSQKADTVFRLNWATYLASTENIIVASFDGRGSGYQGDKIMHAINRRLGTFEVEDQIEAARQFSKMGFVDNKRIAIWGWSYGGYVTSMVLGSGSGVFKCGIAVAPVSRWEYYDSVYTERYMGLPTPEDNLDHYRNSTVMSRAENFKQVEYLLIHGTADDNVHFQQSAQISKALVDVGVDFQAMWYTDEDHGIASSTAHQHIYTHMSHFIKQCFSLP
The compound `CC[C@H](C)[C@H](NC(=O)[C@H](Cc1c[nH]cn1)NC(=O)CNC(=O)[C@H](CCC(=O)O)NC(=O)[C@H](CCC(N)=O)NC(=O)[C@H](CC(=O)O)NC(=O)[C@H](CC(N)=O)NC(=O)[C@H](CCCN=C(N)N)NC(=O)[C@H](C)NC(=O)[C@@H]1Cc2ccccc2CN1C(=O)[C@H]1CCCN1)C(=O)N[C@@H](CC(C)C)C(=O)N[C@@H](CCCCN)C(=O)N[C@@H](CCSC)C(=O)N[C@@H](Cc1ccccc1)C(=O)N1CCC[C@H]1C(=O)N[C@@H](CO)C(=O)N[C@H](C(=O)N[C@@H](Cc1c[nH]c2ccccc12)C(=O)N[C@@H](Cc1ccc(O)cc1)C(=O)N[C@H](C(=O)O)C(C)C)[C@@H](C)O` returned an inhibition of 2%.

For `CC[C@H](C)[C@H](NC(=O)[C@H](Cc1c[nH]cn1)NC(=O)CNC(=O)[C@H](CCC(=O)O)NC(=O)[C@H](CCC(N)=O)NC(=O)[C@H](CC(=O)O)NC(=O)[C@H](CC(N)=O)NC(=O)[C@H](CCCN=C(N)N)NC(=O)[C@H](C)NC(=O)[C@@H]1Cc2ccccc2CN1C(=O)[C@H](C)N)C(=O)N[C@@H](CC(C)C)C(=O)N[C@@H](CCCCN)C(=O)N[C@@H](CCSC)C(=O)N[C@@H](Cc1ccccc1)C(=O)N1CCC[C@H]1C(=O)N[C@@H](CO)C(=O)N[C@H](C(=O)N[C@@H](Cc1c[nH]c2ccccc12)C(=O)N[C@@H](Cc1ccc(O)cc1)C(=O)N[C@H](C(=O)O)C(C)C)[C@@H](C)O` (H-A[Tic]ARNDQEGHILKMFPSTWYV-OH), the inhibition was determined as 1%.

In turn, `CC[C@H](C)[C@H](NC(=O)[C@H](Cc1c[nH]cn1)NC(=O)CNC(=O)[C@H](CCC(=O)O)NC(=O)[C@H](CCC(N)=O)NC(=O)[C@H](CC(=O)O)NC(=O)[C@H](CC(N)=O)NC(=O)[C@H](CCCN=C(N)N)NC(=O)[C@H](C)NC(=O)[C@@H]1Cc2ccccc2CN1C(=O)[C@@H](N)CS)C(=O)N[C@@H](CC(C)C)C(=O)N[C@@H](CCCCN)C(=O)N[C@@H](CCSC)C(=O)N[C@@H](Cc1ccccc1)C(=O)N1CCC[C@H]1C(=O)N[C@@H](CO)C(=O)N[C@H](C(=O)N[C@@H](Cc1c[nH]c2ccccc12)C(=O)N[C@@H](Cc1ccc(O)cc1)C(=O)N[C@H](C(=O)O)C(C)C)[C@@H](C)O` (H-C[Tic]ARNDQEGHILKMFPSTWYV-OH) registered an inhibition of 9%.

Take `CC[C@H](C)[C@H](NC(=O)[C@H](Cc1c[nH]cn1)NC(=O)CNC(=O)[C@H](CCC(=O)O)NC(=O)[C@H](CCC(N)=O)NC(=O)[C@H](CC(=O)O)NC(=O)[C@H](CC(N)=O)NC(=O)[C@H](CCCN=C(N)N)NC(=O)[C@H](C)NC(=O)[C@@H]1Cc2ccccc2CN1C(=O)[C@@H](N)CC(=O)O)C(=O)N[C@@H](CC(C)C)C(=O)N[C@@H](CCCCN)C(=O)N[C@@H](CCSC)C(=O)N[C@@H](Cc1ccccc1)C(=O)N1CCC[C@H]1C(=O)N[C@@H](CO)C(=O)N[C@H](C(=O)N[C@@H](Cc1c[nH]c2ccccc12)C(=O)N[C@@H](Cc1ccc(O)cc1)C(=O)N[C@H](C(=O)O)C(C)C)[C@@H](C)O` (H-D[Tic]ARNDQEGHILKMFPSTWYV-OH): the inhibition came to 8%.

Compound `CC[C@H](C)[C@H](NC(=O)[C@H](Cc1c[nH]cn1)NC(=O)CNC(=O)[C@H](CCC(=O)O)NC(=O)[C@H](CCC(N)=O)NC(=O)[C@H](CC(=O)O)NC(=O)[C@H](CC(N)=O)NC(=O)[C@H](CCCN=C(N)N)NC(=O)[C@H](C)NC(=O)[C@@H]1Cc2ccccc2CN1C(=O)[C@@H](N)CCC(=O)O)C(=O)N[C@@H](CC(C)C)C(=O)N[C@@H](CCCCN)C(=O)N[C@@H](CCSC)C(=O)N[C@@H](Cc1ccccc1)C(=O)N1CCC[C@H]1C(=O)N[C@@H](CO)C(=O)N[C@H](C(=O)N[C@@H](Cc1c[nH]c2ccccc12)C(=O)N[C@@H](Cc1ccc(O)cc1)C(=O)N[C@H](C(=O)O)C(C)C)[C@@H](C)O` (H-E[Tic]ARNDQEGHILKMFPSTWYV-OH) had an inhibition of 4%.

The compound `CC[C@H](C)[C@H](NC(=O)[C@H](Cc1c[nH]cn1)NC(=O)CNC(=O)[C@H](CCC(=O)O)NC(=O)[C@H](CCC(N)=O)NC(=O)[C@H](CC(=O)O)NC(=O)[C@H](CC(N)=O)NC(=O)[C@H](CCCN=C(N)N)NC(=O)[C@H](C)NC(=O)[C@@H]1Cc2ccccc2CN1C(=O)[C@@H](N)Cc1ccccc1)C(=O)N[C@@H](CC(C)C)C(=O)N[C@@H](CCCCN)C(=O)N[C@@H](CCSC)C(=O)N[C@@H](Cc1ccccc1)C(=O)N1CCC[C@H]1C(=O)N[C@@H](CO)C(=O)N[C@H](C(=O)N[C@@H](Cc1c[nH]c2ccccc12)C(=O)N[C@@H](Cc1ccc(O)cc1)C(=O)N[C@H](C(=O)O)C(C)C)[C@@H](C)O` (H-F[Tic]ARNDQEGHILKMFPSTWYV-OH) had an inhibition of 4%.

For the compound `CC[C@H](C)[C@H](NC(=O)[C@H](Cc1c[nH]cn1)NC(=O)CNC(=O)[C@H](CCC(=O)O)NC(=O)[C@H](CCC(N)=O)NC(=O)[C@H](CC(=O)O)NC(=O)[C@H](CC(N)=O)NC(=O)[C@H](CCCN=C(N)N)NC(=O)[C@H](C)NC(=O)[C@@H]1Cc2ccccc2CN1C(=O)CN)C(=O)N[C@@H](CC(C)C)C(=O)N[C@@H](CCCCN)C(=O)N[C@@H](CCSC)C(=O)N[C@@H](Cc1ccccc1)C(=O)N1CCC[C@H]1C(=O)N[C@@H](CO)C(=O)N[C@H](C(=O)N[C@@H](Cc1c[nH]c2ccccc12)C(=O)N[C@@H](Cc1ccc(O)cc1)C(=O)N[C@H](C(=O)O)C(C)C)[C@@H](C)O` (H-G[Tic]ARNDQEGHILKMFPSTWYV-OH), the inhibition is 0%.

On to `CC[C@H](C)[C@H](NC(=O)[C@H](Cc1c[nH]cn1)NC(=O)CNC(=O)[C@H](CCC(=O)O)NC(=O)[C@H](CCC(N)=O)NC(=O)[C@H](CC(=O)O)NC(=O)[C@H](CC(N)=O)NC(=O)[C@H](CCCN=C(N)N)NC(=O)[C@H](C)NC(=O)[C@@H]1Cc2ccccc2CN1C(=O)[C@@H](N)Cc1c[nH]cn1)C(=O)N[C@@H](CC(C)C)C(=O)N[C@@H](CCCCN)C(=O)N[C@@H](CCSC)C(=O)N[C@@H](Cc1ccccc1)C(=O)N1CCC[C@H]1C(=O)N[C@@H](CO)C(=O)N[C@H](C(=O)N[C@@H](Cc1c[nH]c2ccccc12)C(=O)N[C@@H](Cc1ccc(O)cc1)C(=O)N[C@H](C(=O)O)C(C)C)[C@@H](C)O` (H-H[Tic]ARNDQEGHILKMFPSTWYV-OH), for which the inhibition is 7%.

A further assay has as its target T1, Dipeptidyl peptidase 4. Put plainly: Percent inhibition of Dipeptidyl peptidase IV (DPP IV) at a concentration of 10 uM.
As for `CC[C@@H](C)[C@H](NC(=O)[C@@H]1Cc2ccccc2CN1C(=O)[C@@H](N)Cc1c[nH]c2ccccc12)C(=O)O`, the inhibition stood at 32%.

On to `C[C@H](O)[C@H](NC(=O)[C@@H]1Cc2ccccc2CN1C(=O)[C@@H](N)Cc1c[nH]c2ccccc12)C(=O)O`, for which the inhibition came to 37%.

Consider `N[C@@H](Cc1c[nH]c2ccccc12)C(=O)N[C@@H](CCC(=O)O)C(=O)O` (H-Trp-Glu-OH), for which the inhibition was found to be 3%.

The compound `N[C@@H](Cc1c[nH]c2ccccc12)C(=O)N[C@@H](Cc1ccccc1)C(=O)O` (H-Trp-Phe-OH) gave an inhibition of 0%.

Turning to `N[C@@H](Cc1c[nH]c2ccccc12)C(=O)N1CCC[C@H]1C(=O)O` (H-Trp-Pro-OH), the inhibition is 15%.

Compound `N[C@@H](Cc1c[nH]c2ccccc12)C(=O)N[C@@H](Cc1c[nH]c2ccccc12)C(=O)O` (H-Trp-Trp-OH) showed an inhibition of 2%.

As for `N[C@@H](Cc1c[nH]c2ccccc12)C(=O)N[C@@H](Cc1ccc(O)cc1)C(=O)O` (H-Trp-Tyr-OH), the inhibition came to 10%.

The compound `CC(C)[C@H](NC(=O)[C@@H](N)Cc1c[nH]c2ccccc12)C(=O)O` (H-Trp-Val-OH) showed an inhibition of 4%.

On to `C[C@H](NC(=O)[C@@H]1Cc2ccccc2CN1C(=O)[C@@H](N)Cc1c[nH]c2ccccc12)C(=O)O` (H-Trp-[Tic]-Ala-OH), for which the inhibition was 43%.

The compound `NC(N)=NCCC[C@H](NC(=O)[C@@H]1Cc2ccccc2CN1C(=O)[C@@H](N)Cc1c[nH]c2ccccc12)C(=O)O` (H-Trp-[Tic]-Arg-OH) had an inhibition of 38%.

`NC(=O)C[C@H](NC(=O)[C@@H]1Cc2ccccc2CN1C(=O)[C@@H](N)Cc1c[nH]c2ccccc12)C(=O)O` (H-Trp-[Tic]-Asn-OH) gave an inhibition of 46%.

`N[C@@H](Cc1c[nH]c2ccccc12)C(=O)N1Cc2ccccc2C[C@H]1C(=O)N[C@@H](CC(=O)O)C(=O)O` (H-Trp-[Tic]-Asp-OH) gave an inhibition of 38%.

Take `N[C@@H](Cc1c[nH]c2ccccc12)C(=O)N1Cc2ccccc2C[C@H]1C(=O)N[C@@H](CS)C(=O)O` (H-Trp-[Tic]-Cys-OH): the inhibition was determined as 49%.

The compound `NC(=O)CC[C@H](NC(=O)[C@@H]1Cc2ccccc2CN1C(=O)[C@@H](N)Cc1c[nH]c2ccccc12)C(=O)O` (H-Trp-[Tic]-Gln-OH) came in with an inhibition of 49%.

Compound `N[C@@H](Cc1c[nH]c2ccccc12)C(=O)N1Cc2ccccc2C[C@H]1C(=O)NCC(=O)O` (H-Trp-[Tic]-Gly-OH) displayed an inhibition of 34%.

As to `N[C@@H](Cc1c[nH]c2ccccc12)C(=O)N1Cc2ccccc2C[C@H]1C(=O)N[C@@H](Cc1c[nH]cn1)C(=O)O` (H-Trp-[Tic]-His-OH), the inhibition is 35%.

In turn, `CC(C)C[C@H](NC(=O)[C@@H]1Cc2ccccc2CN1C(=O)[C@@H](N)Cc1c[nH]c2ccccc12)C(=O)O` (H-Trp-[Tic]-Leu-OH) had an inhibition of 25%.

As for `NCCCC[C@H](NC(=O)[C@@H]1Cc2ccccc2CN1C(=O)[C@@H](N)Cc1c[nH]c2ccccc12)C(=O)O` (H-Trp-[Tic]-Lys-OH), the inhibition worked out at 27%.

`CSCC[C@H](NC(=O)[C@@H]1Cc2ccccc2CN1C(=O)[C@@H](N)Cc1c[nH]c2ccccc12)C(=O)O` (H-Trp-[Tic]-Met-OH) registered an inhibition of 43%.

Consider `N[C@@H](Cc1c[nH]c2ccccc12)C(=O)N1Cc2ccccc2C[C@H]1C(=O)N[C@@H](Cc1ccccc1)C(=O)O` (H-Trp-[Tic]-Phe-OH), for which the inhibition was found to be 29%.

`N[C@@H](Cc1c[nH]c2ccccc12)C(=O)N1Cc2ccccc2C[C@H]1C(=O)N1CCC[C@H]1C(=O)O` (H-Trp-[Tic]-Pro-OH) returned an inhibition of 20%.

`N[C@@H](Cc1c[nH]c2ccccc12)C(=O)N1Cc2ccccc2C[C@H]1C(=O)N[C@@H](Cc1c[nH]c2ccccc12)C(=O)O` (H-Trp-[Tic]-Trp-OH) had an inhibition of 37%.

With `N[C@@H](Cc1c[nH]c2ccccc12)C(=O)N1Cc2ccccc2C[C@H]1C(=O)N[C@@H](Cc1ccc(O)cc1)C(=O)O` (H-Trp-[Tic]-Tyr-OH), the inhibition was 36%.

Turning to `CC(C)[C@H](NC(=O)[C@@H]1Cc2ccccc2CN1C(=O)[C@@H](N)Cc1c[nH]c2ccccc12)C(=O)O` (H-Trp-[Tic]-Val-OH), the inhibition was 19%.

As a reminder, the inhibition is the change of the read-out against control, counted positive when it falls. A high value points to a response far below the control.
